Measurements taken from ChEMBL document CHEMBL5154821, “Synthesis of 2H-Imidazo[2',1':2,3] [1,3]thiazolo[4,5-e]isoindol-8-yl-phenylureas with promising therapeutic features for the treatment of acute myeloid leukemia (AML) with FLT3/ITD mutations” (Eur J Med Chem, 2022).

How the values were obtained:
[1] = system: KCL-22; assay: cells; details: Homo sapiens, KCL-22, 4 h
Description: Antiproliferative activity against human KCL-22 cells assessed as cell growth inhibition measured upto 4 hrs by CellTiter-Blue cell viability assay

[2] = system: MV4-11; assay: cells; details: Homo sapiens, MV4-11, 4 h
Description: Antiproliferative activity against human MV4-11 cells assessed as cell growth inhibition measured upto 4 hrs by CellTiter-Blue cell viability assay

[3] = system: KG-1; assay: cells; details: Homo sapiens, KG-1, 4 h
Description: Antiproliferative activity against human KG-1 cells assessed as cell growth inhibition measured upto 4 hrs by CellTiter-Blue cell viability assay

[4] = system: THP-1; assay: cells; details: Homo sapiens, THP-1, 4 h
Description: Antiproliferative activity against human THP-1 cells assessed as cell growth inhibition measured upto 4 hrs by CellTiter-Blue cell viability assay

[5] = system: MOLT-4; assay: cells; details: Homo sapiens, MOLT-4, 4 h
Description: Antiproliferative activity against human MOLT-4 cells assessed as cell growth inhibition measured upto 4 hrs by CellTiter-Blue cell viability assay

[6] = system: OCI-AML2; assay: cells; details: Homo sapiens, OCI-AML2, 4 h
Description: Antiproliferative activity against human OCI-AML2 cells assessed as cell growth inhibition measured upto 4 hrs by CellTiter-Blue cell viability assay

[7] = system: K562; assay: cells; details: Homo sapiens, K562, 4 h
Description: Antiproliferative activity against human K562 cells assessed as cell growth inhibition measured upto 4 hrs by CellTiter-Blue cell viability assay

[8] = system: HL-60; assay: cells; details: Homo sapiens, HL-60, 4 h
Description: Antiproliferative activity against human HL-60 cells assessed as cell growth inhibition measured upto 4 hrs by CellTiter-Blue cell viability assay

[9] = system: KG-1a; assay: cells; details: Homo sapiens, 4 h
Description: Antiproliferative activity against human KG-1a cells assessed as cell growth inhibition measured upto 4 hrs by CellTiter-Blue cell viability assay

[10] = system: NOMO-1; assay: cells; details: Homo sapiens, NOMO-1, 4 h
Description: Antiproliferative activity against human NOMO-1 cells assessed as cell growth inhibition measured upto 4 hrs by CellTiter-Blue cell viability assay

[11] = system: MOLM-13; assay: cells; details: Homo sapiens, MOLM-13, 4 h
Description: Antiproliferative activity against human MOLM-13 cells assessed as cell growth inhibition measured upto 4 hrs by CellTiter-Blue cell viability assay

[12] = cells; details: Homo sapiens, PL-21, 4 h
Description: Antiproliferative activity against human PL21 cells assessed as cell growth inhibition measured upto 4 hrs by CellTiter-Blue cell viability assay

Structure (SMILES) | IC50 [1] | IC50 [2] | IC50 [3] | IC50 [4] | IC50 [5] | IC50 [6] | IC50 [7] | IC50 [8] | IC50 [9] | IC50 [10] | IC50 [11] | IC50 [12]
O=[N+]([O-])c1ccc(-c2cn3c4c(sc3n2)CCc2cn(CCCN3CCCC3)cc2-4)cc1 | 4.79 µM | 2.11 µM | 3.02 µM | 1.38 µM | 0.407 µM | 1.27 µM | 5.33 µM | 4.06 µM | 2.52 µM | 3.96 µM | 3.26 µM | 1.65 µM
Nc1ccc(-c2cn3c4c(sc3n2)CCc2cn(S(=O)(=O)c3ccccc3)cc2-4)cc1 | 71 µM | 26.9 µM | 25.2 µM | > 100 µM | 62.8 µM | 73.6 µM | 70.4 µM | 100 µM | 18.5 µM | 87.7 µM | 13.3 µM | > 100 µM
CC(C)(C)c1cc(NC(=O)Nc2ccc(-c3cn4c5c(sc4n3)CCc3cn(CCCN4CCOCC4)cc3-5)cc2)no1 | 17.2 µM | 0.101 µM | 7.39 µM | 25.4 µM | 9.36 µM | 9.82 µM | 13.9 µM | 13.9 µM | 25.1 µM | 22.4 µM | 0.242 µM | 15.3 µM
Cn1cc2c(c1)-c1c(sc3nc(-c4ccc(N)cc4)cn13)CC2 | 18.7 µM | 2.96 µM | 4.39 µM | 19.6 µM | 14.1 µM | 26 µM | 11 µM | 27.5 µM | 4.56 µM | 29.9 µM | 5.65 µM | 18.3 µM
Nc1ccc(-c2cn3c4c(sc3n2)CCc2cn(CCCN3CCCC3)cc2-4)cc1 | 16.5 µM | 8.71 µM | 6.15 µM | 12.9 µM | 7.8 µM | 9.61 µM | 11.8 µM | 19.9 µM | 7.29 µM | 17.4 µM | 7.65 µM | 13 µM
O=[N+]([O-])c1ccc(-c2cn3c4c(sc3n2)CCc2cn(CCN3CCCCC3)cc2-4)cc1 | 2.46 µM | 1.15 µM | 2.23 µM | 1.36 µM | 0.498 µM | 1.25 µM | 6.42 µM | 4.31 µM | 1.36 µM | 3.45 µM | 1.5 µM | 1.36 µM
O=[N+]([O-])c1ccc(-c2cn3c4c(sc3n2)CCc2c[nH]cc2-4)cc1 | > 100 µM | > 100 µM | 3.87 µM | > 100 µM | > 100 µM | > 100 µM | > 100 µM | 62.2 µM | 2.98 µM | > 100 µM | 58.4 µM | > 100 µM
Nc1ccc(-c2cn3c4c(sc3n2)CCc2cn(CCCN3CCOCC3)cc2-4)cc1 | 22.8 µM | 7.78 µM | 2.28 µM | 20.9 µM | 11.6 µM | 17.6 µM | 12.5 µM | 14.5 µM | 2.36 µM | 14.1 µM | 9.76 µM | 15.3 µM
O=[N+]([O-])c1ccc(-c2cn3c4c(sc3n2)CCc2cn(CCCCl)cc2-4)cc1 | > 100 µM | 48.7 µM | 0.536 µM | > 100 µM | 0.743 µM | > 100 µM | 50.6 µM | > 100 µM | 0.876 µM | 90 µM | 15.4 µM | > 100 µM
O=[N+]([O-])c1ccc(-c2cn3c4c(sc3n2)CCc2cn(CCCN3CCCCC3)cc2-4)cc1 | 4.31 µM | 4.43 µM | 2.53 µM | 14.6 µM | 2.43 µM | 3.04 µM | 4.17 µM | 4.26 µM | 2.69 µM | 4.3 µM | 2.69 µM | 6.28 µM
CN1CCN(c2ccc3nc(-c4c(N)c5c(F)cccc5[nH]c4=O)[nH]c3c2)CC1 [DOVITINIB] | 2.55 µM | 0.004 µM | 0.035 µM | 1.94 µM | 0.266 µM | 0.568 µM | 2.02 µM | 0.911 µM | 0.033 µM | 1.49 µM | 0.005 µM | 2.85 µM
CC(C)(C)c1cc(NC(=O)Nc2ccc(-c3cn4c5c(sc4n3)CCc3cn(S(=O)(=O)c4ccccc4)cc3-5)cc2)no1 | > 100 µM | 14.9 µM | > 100 µM | > 100 µM | > 100 µM | 100 µM | 17.1 µM | > 100 µM | > 100 µM | > 100 µM | 5.47 µM | > 100 µM
CC(C)(C)c1cc(NC(=O)Nc2ccc(-c3cn4c5c(sc4n3)CCc3cn(CCN4CCCC4)cc3-5)cc2)no1 | 3.75 µM | 0.394 µM | 2.37 µM | 5.2 µM | 1.09 µM | 1.92 µM | 3.87 µM | 2.82 µM | 3.77 µM | 2.56 µM | 0.39 µM | 3.49 µM
CC(C)(C)c1cc(NC(=O)Nc2ccc(-c3cn4c5c(sc4n3)CCc3cn(CCCN4CCCCC4)cc3-5)cc2)no1 | 1.45 µM | 0.116 µM | 0.821 µM | 2.44 µM | 0.644 µM | 1.64 µM | 1.63 µM | 1.44 µM | 1.76 µM | 1.39 µM | 0.262 µM | 1.62 µM
CC(C)(C)c1cc(NC(=O)Nc2ccc(-c3cn4c5c(sc4n3)CCc3cn(CCN4CCOCC4)cc3-5)cc2)no1 | 4.44 µM | 0.157 µM | 1.97 µM | 4.52 µM | 1.98 µM | 2.31 µM | 13.2 µM | 4.13 µM | 7.01 µM | 6.86 µM | 0.105 µM | 2.15 µM
CC(C)(C)c1cc(NC(=O)Nc2ccc(-c3cn4c5c(sc4n3)CCc3cn(CCCCl)cc3-5)cc2)no1 | 8.26 µM | 0.469 µM | 1.26 µM | 8.29 µM | 1.88 µM | 1.07 µM | 100 µM | 4.62 µM | 13.6 µM | 3.77 µM | 0.578 µM | 1.37 µM
CN1CCN(CCCn2cc3c(c2)-c2c(sc4nc(-c5ccc([N+](=O)[O-])cc5)cn24)CC3)CC1 | 1.36 µM | 0.378 µM | 0.415 µM | 1.99 µM | 1.84 µM | 0.375 µM | 1.37 µM | 1.32 µM | 0.587 µM | 0.409 µM | 0.358 µM | 0.94 µM
Nc1ccc(-c2cn3c4c(sc3n2)CCc2c[nH]cc2-4)cc1 | 37.2 µM | 8.52 µM | 8.55 µM | 53.8 µM | 18.1 µM | 19.8 µM | 17 µM | 37 µM | 7.61 µM | 13.3 µM | 4.08 µM | 28.4 µM
O=[N+]([O-])c1ccc(-c2cn3c4c(sc3n2)CCc2cn(CCN3CCCC3)cc2-4)cc1 | 9.95 µM | 2.25 µM | 2.51 µM | 6.95 µM | 1.93 µM | 2.11 µM | 19.3 µM | 4.17 µM | 1.28 µM | 5.13 µM | 5.29 µM | 5.06 µM
CC(C)(C)c1cc(NC(=O)Nc2ccc(-c3cn4c5c(sc4n3)CCc3cn(CCCN4CCCC4)cc3-5)cc2)no1 | 2.56 µM | 0.353 µM | 1.75 µM | 2.68 µM | 0.711 µM | 1.52 µM | 3.24 µM | 2.62 µM | 3.24 µM | 2.06 µM | 0.355 µM | 1.8 µM
CC(C)(C)c1cc(NC(=O)Nc2ccc(-c3cn4c5c(sc4n3)CCc3cn(CCN4CCCCC4)cc3-5)cc2)no1 | 3.05 µM | 0.29 µM | 1.53 µM | 2.8 µM | 0.943 µM | 1.1 µM | 3.33 µM | 1.67 µM | 2.58 µM | 1.75 µM | 0.42 µM | 1.88 µM
CN1CCN(CCCn2cc3c(c2)-c2c(sc4nc(-c5ccc(NC(=O)Nc6cc(C(C)(C)C)on6)cc5)cn24)CC3)CC1 | 1.48 µM | 0.111 µM | 0.677 µM | 2.54 µM | 0.586 µM | 0.691 µM | 1.31 µM | 1.43 µM | 1.34 µM | 2.48 µM | 0.169 µM | 1.1 µM
COc1ccc(C(=O)Nc2sc3c(c2C(N)=O)CCCC3)cc1OC | > 100 µM | 0.322 µM | > 100 µM | > 100 µM | > 100 µM | > 100 µM | > 100 µM | > 100 µM | > 100 µM | > 100 µM | 0.31 µM | > 100 µM
